Results published in patent publication US7166581B1, “Treatment of chemotherapeutic agent and antiviral agent toxicity with acylated pyrimidine nucleosides” (Wellstat Therapeutics Corporation, priority 1987, dated 2007).

Tests used:
[1] = system: hematopoietic system (Ara-C toxicity); assay: DAdC or PdC vs hematopoietic toxicity of arabinosyl cytosine (Example 7); format: in vivo, Balb/C female mice; conditions: Ara-C 100 mg/kg i.p. daily for five days; DAdC 411 mg/kg p.o. or PdC 200 mg/kg i.p. twice daily
Procedure: Twenty-one Balb/C female mice weighing approximately 20 grams each received a daily intraperitoneal injection of Ara-C (100 mg/kg) for five days. These mice were divided into three treatment groups: oral administration of water (controls); oral administration of DAdC (411 mg/kg/treatment); and intraperitoneal administration of PdC (200 mg/kg/treatment in 0.2% Tween 80). Mice were treated with either water, DAdC, or PdC twice daily, at 9 a.m. and 6 p.m. Treatment volume in each case was 0.2 ml. An additional seven mice received no Ara-C and no treatment at all (basals).
On days seven and eleven following 5-FU administration, blood (0.2–0.3 ml) was collected from the seven mice in each group by retro-orbital bleeding into EDTA for subsequent differential blood cell counting. Mice were sacrificed by cervical dislocation, and their spleens removed and weighed.

[2] = system: hematopoietic system (AZT toxicity); assay: Oral DAdC vs hematopoietic toxicity of i.p. AZT in DBA mice (Example 10); format: in vivo, female DBA mice
Procedure: AZT (100 mg/kg i.p.) was given three times daily at 9 a.m., 4 p.m., and at 10 p.m. to twenty-eight female DBA mice weighing approximately 20 grams each. Three times each day, at 9 a.m., 4 p.m., and 10 p.m., animals were treated with either water (control) or DAdC (411 mg/kg/treatment) by oral intubation. Treatment volume was 0.2 ml. One additional group of fourteen mice was not given AZT or any treatment (basal).
During the first few days of treatment a total of eight mice died from accidents occurring during oral administration of the water and DAdC. Therefore, the number of animals in the control group and the DAdC group were reduced on the days of sacrifice as follows: On day 6 there were four mice in the control group and five in the DAdC group; on day 13 there were seven in the control group and three in the DAdC group. The number of basal animals was seven at both time points.
(§1) On days six and thirteen blood (0.2–0.3 ml) was collected from mice in each group by retro-orbital bleeding into EDTA for subsequent differential blood cell counting, including reticulocytes. The animals were then sacrificed by cervical dislocation; their right femurs removed and the contents expelled for cell counting; and their spleens removed and weighed.

[3] = system: hematopoietic system (AZT toxicity); assay: DAdC or THU vs hematopoietic damage by i.p. AZT in Balb/C mice (Example 11); format: in vivo, female Balb/C mice; conditions: for Total neutrophil counts: day thirteen, AZT + DAdC 300 mg/kg p.o. or THU […] i.p. three times daily
Procedure: AZT (100 mg/kg i.p.) was given three times daily at 9 a.m., 4 p.m., and 10 p.m. to twenty-one female Balb/C mice weighing approximately 20 grams each. […] Treatment volume was 0.2 ml. One group of seven mice was not given AZT or any treatment (basal).
as §1, with “day” for “days six and”, “bleeding-into” for “bleeding into”

[4] = system: CD8F1 spontaneous mammary adenocarcinoma; assay: TAU/uridine rescue with 5-FU alone in tumor-bearing mice (Example 5); format: in vivo
Procedure: Sixty CD8F1 (BALB/C×[…]) female mice with first generation transplants of CD8F1 spontaneous mammary adenocarcinoma were treated with a weekly chemotherapy regimen which included a single dose of 5-FU (150 mg/kg) followed by various rescue strategies. The average tumor size was 157 mg at the start of the chemotherapy. The weekly chemotherapy course was completed three times.
In order to evaluate the various rescue therapies, the animals were divided into six groups of ten animals each as follows: […]

[5] = system: hematopoietic system (5-FU toxicity); assay: Acyl derivatives of uridine i.p. vs bone marrow toxicity of 5-FU (Example 3); format: in vivo, female Balb/C mice; conditions: for Spleen weights: day eleven after 5-FU, in mg; for Spleen weight: day seven after 5-FU 150 mg/kg i.p., i.p. doses equimolar to uridine 300 mg/kg/treatment; for HCT % / Lym / Neut / RBC / WBC: eleven days after 5-FU
Procedure: Ninety-eight female Balb/C mice weighing approximately 20 grams each were given a one-time 150 mg/kg injection (i.p.) of 5-FU at 1 p.m. on the initial day of the study. […] All of these doses are equimolar, and were administered in a volume of 0.4 ml by i.p. injection. The groups were treated at 3:30, 6:00, and 8:30 p.m. on the initial day with their respective agents. […] On days seven and eleven following 5-FU administration, blood (0.2–0.3 ml) was collected from seven mice in each group by retro-orbital bleeding into EDTA for subsequent differential blood cell counting. Mice were sacrificed by cervical dislocation; their right femurs removed and the contents expelled for cell counting; and their spleens removed and weighed.

[6] = Toxicity of oral tegafur with TAU or uracil: body weight and blood cell counts (Example 13); format: in vivo, mice; conditions: alone or with uracil or TAU 4:1 molar
Procedure: Triacetyluridine (TAU), like other acyl derivatives of uridine and cytidine of the invention, is converted to uridine and uracil during and after absorption into the bloodstream; when present at the same time as 5-FU, both uridine and uracil are capable of potentiating 5-FU cytotoxicity. Therefore, the cytotoxicity of oral tegafur+uracil versus tegafur+TAU was assessed. Blood cell counts were utilized as an index of cytotoxicity of 5-FU in the circulation (and by extension, of antitumor potency). Body weight loss was used as an index of gastrointestinal toxicity.
Three groups of mice received tegafur by oral intubation in a dose of 400 mg/kg per mouse. The initial body weight of mice in each group was 19.0±0.6 grams. One of these groups also received uracil in a molar ratio of 4:1 to the tegafur dose, and another group received TAU, also in a 4:1 molar ratio to tegafur. Body weights were monitored. Six days after tegafur administration, blood samples were taken for differential cell counts.
All drugs were administered orally in a single dose. Blood samples were taken for cell counts 6 days after drug administration; body weights were also recorded at this time.

[7] = system: hematopoietic system (5-FU toxicity); assay: Octanoyluridine vs hematological toxicity of 5-FU (Example 3A); format: in vivo, Balb/C female mice; conditions: seven days after 5-FU 75 mg/kg i.p.; Oct-U 100 mg/kg/treatment i.p.
Procedure: Fourteen Balb/C female mice weighing approximately 20 grams each were given a one-time 75 mg/kg i.p. injection of 5-FU at 11:00 a.m. on the initial day of the study. Half of these animals were subsequently treated with Oct-U (100 mg/kg/treatment, i.p.), while the other half (controls) were injected with physiological saline. Administration of Oct-U and saline occurred at 2:30, 4:30, and 7:00 p.m. on the initial day, and at 9:30 a.m., 12:00 noon, 2:30, and 5:00 p.m the following day. An additional group of seven mice (basals) received no 5-FU and no treatments.

[8] = AZT for six days + oral DAdC 411 mg/kg/treatment
[9] = AZT for thirteen days + oral DAdC 411 mg/kg/treatment
[10] = AZT for thirteen days + DAdC 300 mg/kg/treatment p.o.
[11] = day seven after 5-FU, equimolar i.p. doses
[12] = 6 days after single oral tegafur 400 mg/kg

CC(=O)OC[C@H]1O[C@@H](n2ccc(N)nc2=O)C[C@@H]1OC(C)=O [DAdC, diacetyldeoxycytidine]
Neut [1]: 0.42 ± .05 K/μl
PLT [1]: 728 ± 64 K/μl
Spleen [1]: 87.8 ± 3.5 milligrams
WBC [1]: 5.00 ± .42 K/μl
HCT [2, 8]: 40.84 ± 1.35
HGB [2, 8]: 13.96 ± .40
RBC [2, 8]: 9.49 ± .32
Reticulocytes [2, 8]: .205 ± .075
HCT [2, 9]: 41.53 ± 1.17
HGB [2, 9]: 13.97
RBC [2, 9]: 9.16 ± .32
Reticulocytes [2, 9]: .814 ± .069
reduction in bone marrow cellularity vs basals ([2]; day six, AZT 100 mg/kg i.p. three times daily + oral DAdC 411 mg/kg/treatment): 2.5%
Platelet counts ([2]; day thirteen, AZT + oral DAdC 411 mg/kg/treatment): 769±32
RBC ([3]; AZT 100 mg/kg i.p. three times daily for thirteen days + DAdC 300 mg/kg/treatment p.o.): 8.26 ± .13
HCT [3, 10]: 39.51 ± 0.61
HGB [3, 10]: 14.97 ± .15
Retic. [3, 10]: .059 ± .006
Total neutrophil counts [3]: 1.39±0.14

O=c1[nH]cc(F)c(=O)[nH]1 [5-FU, 5-fluorouracil]
Mortality ([4]; 5-FU 150 mg/kg i.p. weekly x3 + vehicle (oil-water emulsion)): 10/10
Mortality ([4]; 5-FU alone 150 mg/kg i.p. weekly x3, no rescue): 9/10

valeryluridine [VU]
Spleen weights ([5]; equimolar i.p. doses): 139.4±8.0
Spleen weight [5]: 69.1 ± 1.7 mg
Lymphocyte counts [5, 11]: 6.42±0.49 ×10^3 per microliter
Platelet counts [5, 11]: 825.7±26.7 ×10^3 per microliter
Total neutrophil counts [5, 11]: 0.141±0.027 ×10^3 per microliter
White blood cell counts [5, 11]: 6.57±0.49 ×10^3 per microliter
HCT % ([5]; equimolar i.p. doses): 38.31 ± 0.8 %
Lym ([5]; equimolar i.p. doses): 5.2 ± .4 K/μl
Neut ([5]; equimolar i.p. doses): .97 ± K/μl
RBC ([5]; equimolar i.p. doses): 7.83 ± .1 M/μl
WBC ([5]; equimolar i.p. doses): 6.31 ± .42 K/μl

O=c1[nH]c(=O)n(C2CCCO2)cc1F (stereo not shown) [Tegafur]
Body weight [6, 12]: 18.2 ± 0.7 grams
Neutrophils [6, 12]: 0.40 ± 0.085 K/μl
Platelets [6, 12]: 956 ± 30 K/μl
loss of body weight compared to untreated (basal) animals ([6]; oral tegafur 400 mg/kg): 7%

O=C1NC(O)CCN1[C@@H]1O[C@H](CO)[C@@H](O)[C@H]1O (stereo partly shown) [THU, Tetrahydrouridine, reference compound]
Total neutrophil counts [3]: 1.16±0.15

ethoxycarbonyluridine [ECU]
Spleen weight [5]: 75.7 ± 5.0 mg
Lymphocyte counts [5, 11]: 7.19±0.32 ×10^3 per microliter
White blood cell counts [5, 11]: 7.26±0.31 ×10^3 per microliter
HCT % ([5]; equimolar i.p. doses): 37.54 ± 1.0 %
Lym ([5]; equimolar i.p. doses): 4.8 ± .5 K/μl
Neut ([5]; equimolar i.p. doses): .66 ± K/μl
RBC ([5]; equimolar i.p. doses): 7.65 ± .2 M/μl
WBC ([5]; equimolar i.p. doses): 5.51 ± .64 K/μl

benzoyluridine [BU]
Spleen weights ([5]; equimolar i.p. doses): 126.9±12.3
Platelet counts [5, 11]: 829.6 ×10^3 per microliter
HCT % ([5]; equimolar i.p. doses): 36.87 ± 0.6 %
Lym ([5]; equimolar i.p. doses): 5.1 ± .4 K/μl
Neut ([5]; equimolar i.p. doses): 1.04 K/μl
RBC ([5]; equimolar i.p. doses): 7.62 ± .1 M/μl
WBC ([5]; equimolar i.p. doses): 6.20 ± .49 K/μl

CCCCCCCC(=O)OCC1OC(n2ccc(=O)[nH]c2=O)C(O)C1O (stereo not shown) [Oct-U]
overall effect at the dose used ([5]; after 5-FU, OU 455 mg/kg/treatment i.p.): somewhat detrimental
Lym [7]: 4.62 ± .29 thousands per microliter
Marrow [7]: 7.73 ± .68 thousands per microliter
Neut [7]: 1.19 ± .22 thousands per microliter
PLT [7]: 1243 ± 59 K/μl
RBC [7]: 8.13 ± .14 M/μl
Spleen weight [7]: 87.2 ± 3.7 mg
WBC [7]: 5.96 ± .47 thousands per microliter

palmitoyldeoxycytidine [PdC]
Neut [1]: 1.22 ± .27 K/μl
PLT [1]: 327 ± 30 K/μl
Spleen [1]: 126.0 ± 5.3 milligrams
WBC [1]: 5.20 ± .35 K/μl
